Experimental data as given in patent EP3381908A1, “2-(4-(4-(BROMO-METHOXYBENZAMIDO)BENZYLAMINO)PHENYL)BENZAZOLE DERIVATIVES AND THEIR USE AS ANTI-HEPARANASE” (Leadiant Biosciences SA, priority 2017, dated 2018).
Read-outs that look alike come from different tables or passages of the source. One block for each compound: values may come before it.

Experiments:
[1] = target: T1, heparanase (Homo sapiens, UniProt Q9Y251); assay: AGA*IA assay (fondaparinux cleavage, WST-1 colorimetric) for heparanase inhibition; format: biochemical
T1 sequence (Q9Y251 158-543 limits assumed): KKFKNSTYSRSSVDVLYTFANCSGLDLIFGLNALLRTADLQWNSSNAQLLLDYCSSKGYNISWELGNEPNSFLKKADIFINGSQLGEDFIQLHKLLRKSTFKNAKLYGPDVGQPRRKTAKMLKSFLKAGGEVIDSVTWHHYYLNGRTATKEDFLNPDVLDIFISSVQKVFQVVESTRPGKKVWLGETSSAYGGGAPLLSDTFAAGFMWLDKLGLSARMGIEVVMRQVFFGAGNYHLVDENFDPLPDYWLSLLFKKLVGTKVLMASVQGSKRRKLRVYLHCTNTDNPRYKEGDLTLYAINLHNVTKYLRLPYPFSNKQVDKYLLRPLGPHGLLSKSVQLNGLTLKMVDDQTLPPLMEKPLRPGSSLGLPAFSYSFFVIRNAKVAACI
T1 sequence (Q9Y251 36-109 limits assumed): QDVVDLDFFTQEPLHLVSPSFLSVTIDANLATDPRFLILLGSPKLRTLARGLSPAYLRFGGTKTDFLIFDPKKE
Description: All compounds were tested in a simple, accurate and robust microplate assay based on the cleavage of the synthetic heparin fragment, the pentasaccharide Fondaparinux (AGA*IA). This assay was originally developed by Hammond and coworkers [Hammond E, Li CP, Ferro V. Development of a colorimetric assay for heparanase activity suitable for kinetic analysis and inhibitor screening. […] Fondaparinux is cleaved by heparanase to generate a reducing disaccharide, which can be quantitatively measured via a colorimetric or a fluorescence assay, the last by the fluorescent sensor polymer-H [Schiemann S, Lühn S, Alban S. Development of both colorimetric and fluorescence heparinase activity assays using fondaparinux as substrate.
The assay measures the appearance of the disaccharide product of heparanase-catalyzed fondaparinux cleavage colorimetrically using the tetrazolium salt WST-1. Assay was essentially performed as described with minor modifications. Briefly, NUNC ELISA 96-well plates were pre-treated with a solution of 4% BSA (bovin serum albumin) in phosphate-buffered saline containing 0.05% Tween 20 (PBST), for 2 h at 37°C, then washed three times with PBST, dried by tapping on paper towel and stored at -20°C. Before use, once again, the plates were washed with PBST.
Then, the absorbance at 560 nm was measured through a microplate reader (Victor 3, Perkin Elmer).
Finally, the measurements were corrected by subtracting both the reagent background and the inner absorbance value of test compound. Table 2. IC50 value in AGA*IA assay, versus heparanase inhibition of selected compounds of present invention.

[2] = test system: U2OS (human osteosarcoma); assay: SRB Cell Cytotoxicity Assay, 72h; format: cell-based; conditions: Conc. 2.5 µM, N.I.: Not Inhibition
[3] = test system: U87MG (human glioblastoma astrocytoma); assay: Matrigel cell invasion assay; format: cell-based
Description: (§1) Heparanase inhibitors were then evaluated for their activity on the invasive potential of HT1080 (human fibrosarcoma), U87MG (human glioblastoma astrocytoma) and U2OS (human osteosarcoma) human cell lines, using the Matrigel cell invasion assay which allows to assess the cell invasion ability of malignant and normal cells.
(§2) Invasion assay was performed using BioCoat cell culture inserts (BioCoat 8.0µm PET Membrane 24 Well Permeable Supports, Corning). Filters were coated with 100 µl of 300 µg/ml Matrigel dissolved in coating buffer (0.01M Tris pH 8.0, 0.7% NaCl) (Becton-Dickinson Sciences). DMEM (Dulbecco's Modified Eagle's Medium) containing 5% FBS was added to the lower chambers. Cells were pre-treated with heparanase inhibitors for 24 h, detached and added to the upper chambers in media containing the inhibitors. Cells were allowed to invade for 24 h at 37°C in a CO2 incubator and then unmigrated cells were removed from the upper chamber with a cotton swab. The invading cells were fixed, stained with 0.1% crystal violet for 10 min at room temperature, photographed and counted under inverted microscope.
(§3) Test compounds were analyzed at fixed concentration for several fields, in duplicates. Activity of test compounds was compared to the reference compound. Activity of most interesting compound was confirmed in a second cell invasion assay. Data were expressed as the percent invasion with respect to cell migration through uncoated insert membrane.

[4] = test system: HT1080 (human fibrosarcoma); assay: Matrigel cell invasion assay; format: cell-based
Description: as §1, §2, §3

[5] = test system: U2OS (human osteosarcoma); assay: Matrigel cell invasion assay; format: cell-based
Description: as §1, §2, §3

[6] = test system: HT1080 (human fibrosarcoma); assay: SRB Cell Cytotoxicity Assay, 72h; format: cell-based; conditions: Conc. 2.5 µM, N.I.: Not Inhibition
[7] = test system: U87MG (human glioblastoma astrocytoma); assay: SRB Cell Cytotoxicity Assay, 72h; format: cell-based; conditions: Conc. 2.5 µM, N.I.: Not Inhibition
[8] = test system: FGF-2; assay: Real-Time Quantitative PCR of mRNA gene expression in HT1080 cells; conditions: 24 h, Conc 1.0 uM
[9] = test system: MMP-9; assay: as above; conditions: 24 h, Conc 1.0 uM
[10] = test system: VEGF; assay: as above; conditions: 24 h, Conc 1.0 uM
[11] = test system: FGF-1; assay: as above; conditions: 24 h, Conc 1.0 uM
[12] = Table 1, fluorinated vs non-fluorinated analogues
[13] = Table 3, fluorinated vs non-fluorinated derivatives, read-out: AGAIA assay IC50

IC50 [1, 12]: 2860 nM
IC50 ([1]; Table 2, class symbols): 1000 to 20000 nM
IC50 [1, 13]: 2860 nM
Compound: COc1ccc(C(=O)Nc2ccc(CNc3ccc(-c4nc5cc(CC(=O)O)ccc5[nH]4)cc3F)cc2)cc1Br [Compound 10, 2-(2-(4-((4-(3-bromo-4-methoxybenzamido)benzyl)amino)-3-fluorophenyl)-1H-benzo[d]imidazol-5-yl)acetic acid]

IC50 ([1]; Table 2, class symbols): 500 to 990 nM
Compound: COc1ccc(C(=O)Nc2ccc(CNc3ccc(-c4nc5cc(CC(=O)NCC(=O)O)ccc5[nH]4)cc3F)cc2)cc1Br [Compound 15, 2-(2-(2-(4-((4-(3-bromo-4-methoxybenzamido)benzyl)amino)-3-fluorophenyl)-1H-benzo[d]imidazol-5-yl)acetamido)acetic acid]
Concentration of test compounds at which the cell growth is inhibited by 50 % U2OS [2]: N. I.
Invasion Assay U87MG ([3]; Conc. 2.5µM): + (+ : < 50%)
Invasion Assay HT1080 ([4]; Conc. 2.5µM): + (+ : < 50%)
Invasion Assay U2OS ([5]; Conc. 2.5µM): + (+ : < 50%)
Concentration of test compounds at which the cell growth is inhibited by 50 % HT1080 [6]: N. I.
Concentration of test compounds at which the cell growth is inhibited by 50 % U87MG [7]: N. I.

IC50 [1, 12]: > 10000 nM
IC50 [1, 13]: > 10000 nM
Compound: COc1ccc(C(=O)Nc2ccc(CNc3ccc(-c4nc5cc(CC(=O)O)ccc5[nH]4)cc3)cc2)cc1Br [SST0914AA1, 2-(2-(4-((4-(3-bromo-4-methoxybenzamido)benzyl)amino)-phenyl)-1H-benzo[d]imidazol-5-yl)acetic acid, reference compound]

Further lines, the compound ahead of its results:

Compound: COc1ccc(C(=O)Nc2ccc(CNc3ccc(-c4nc5ccccc5[nH]4)cc3F)cc2)cc1Br [Compound 22]
Gene Expression (% mRNA vs. control) FGF-2 [8]: ∼ 71%
Invasion Assay U87MG ([3]; Conc. 1.1µM): ++ (++: 50-90%)
Invasion Assay HT1080 ([4]; Conc. 1.1µM): ++ (++: 50-90%)
Invasion Assay U2OS ([5]; Conc. 1.1µM): ++ (++: 50-90%)
Gene Expression (% mRNA vs. control) MMP-9 [9]: ∼ 52%
Gene Expression (% mRNA vs. control) VEGF [10]: ∼ 67%
Gene Expression (% mRNA vs. control) FGF-1 [11]: ∼ 77%

Compound: COc1ccc(C(=O)Nc2ccc(CNc3ccc(-c4nc5ccccc5[nH]4)cc3)cc2)cc1Br [SST0408AA1, reference compound]
Gene Expression (% mRNA vs. control) FGF-2 [8]: ∼ 92%
Gene Expression (% mRNA vs. control) MMP-9 [9]: ∼ 69%
Gene Expression (% mRNA vs. control) VEGF [10]: ∼ 72%
Gene Expression (% mRNA vs. control) FGF-1 [11]: ∼ 97%

Compound: COc1ccc(C(=O)Nc2ccc(CNc3ccc(-c4nc5cc(CC(=O)O)ccc5o4)cc3)cc2)cc1Br [SST0915AA1, 2-(2-(4-((4-(3-bromo-4-methoxybenzamido)benzyl)amino)phenyl)benzo[d]oxazol-5-yl)acetic acid, reference compound]
IC50 [1, 12]: > 10000 nM
IC50 [1, 13]: > 10000 nM

Compound: Cc1ccc(C(=O)Nc2ccc(S(=O)(=O)O)c3cc(S(=O)(=O)O)cc(S(=O)(=O)O)c23)cc1NC(=O)c1cccc(NC(=O)Nc2cccc(C(=O)Nc3cc(C(=O)Nc4ccc(S(=O)(=O)O)c5cc(S(=O)(=O)O)cc(S(=O)(=O)O)c45)ccc3C)c2)c1 [Suramin, reference compound]
Invasion Assay U87MG ([3]; Conc. 10µM): -
Invasion Assay HT1080 ([4]; Conc. 10µM): + (+ : < 50%)
Invasion Assay U2OS ([5]; Conc. 10µM): -
